Measured values: patent US10703757B2, “Compounds and methods for CDK8 modulation and indications therefor” (Plexxikon Inc., priority 2016, dated 2020)

Assays:
[1] = test system: CDK8 (phosphorylation of STAT1 at serine 727 in A549 cells); assay: Cell based Phospho-STAT1 assay (IFNγ-stimulated A549 cells, AlphaLISA); conditions: Homo sapiens, A549, A549 cells, phospho-STAT1 after IFNγ stimulation
In short: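 A549 cells given serial compound dilutions for 1 h at 37 °C, then stimulated with IFNγ at 10 ng/mL final for 30 min. Lysate STAT1 Ser727 phosphorylation measured by AlphaLISA; % inhibition vs stimulated/unstimulated DMSO controls, IC50 by nonlinear regression.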

[2] = test system: CDK8 (TCF/LEF luciferase reporter in HCT116 cells); assay: Cell based TCF/LEF reporter assay (HCT116+TCF/LEF luciferase); conditions: Homo sapiens, HCT-116, 24 h
In short: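 Luciferase readout was corrected for viability (CellTiter-Fluor) and scaled between DMSO high and 10 uM CCT251545 low controls, giving IC50 by nonlinear regression. Compounds, serially diluted, were incubated 24 h at 37 °C on HCT116 clones stably expressing a TCF/LEF-driven luciferase reporter.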

Row | IC50 [1] [nM] | IC50 [2] [nM] | SMILES
1 | 0.1 to 100 | 0.1 to 100 | CC(C)(O)Cn1cc(-c2ccc(-c3cnn4ccnc(C5CCC(C#N)CC5)c34)nc2)cn1 (centres unmarked) [Compound P-0458, (1s,4s)-4-(3-(5-(1-(2-hydroxy-2-methylpropyl)-1H-pyrazol-4-yl)pyridin-2-yl)pyrazolo[1,5-a]pyrazin-4-yl)cyclohexane-1-carbonitrile]
2 | 0.1 to 100 | 0.1 to 100 | CC(C)(O)Cn1cc(-c2ccc(-c3cnn4ccnc(C5CCC(C#N)CC5)c34)cn2)cn1 (centres unmarked) [Compound P-0459, (1s,4s)-4-(3-(6-(1-(2-hydroxy-2-methylpropyl)-1H-pyrazol-4-yl)pyridin-3-yl)pyrazolo[1,5-a]pyrazin-4-yl)cyclohexane-1-carbonitrile]
3 | 0.1 to 100 | 0.1 to 100 | CC(C)(C#Cc1cccn2ncc(-c3ccc(-c4cnn(CS(C)(=O)=O)c4)cc3)c12)C(N)=O [Compound P-0460, 2,2-dimethyl-4-(3-(4-(1-((methylsulfonyl)methyl)-1H-pyrazol-4-yl)phenyl)pyrazolo[1,5-a]pyridin-4-yl)but-3-ynamide]
4 | 0.1 to 100 | 0.1 to 100 | CC(C)(C#Cc1cccn2ncc(-c3ccc(-c4cnn(CCCC#N)c4)cc3)c12)C(N)=O [Compound P-0461, 4-(3-(4-(1-(3-cyanopropyl)-1H-pyrazol-4-yl)phenyl)pyrazolo[1,5-a]pyridin-4-yl)-2,2-dimethylbut-3-ynamide]
5 | 0.1 to 100 | 0.1 to 100 | CC(C)(C#Cc1cccn2ncc(-c3ccc(-c4cnn(CC(N)=O)c4)cc3)c12)C(N)=O [Compound P-0462, 4-(3-(4-(1-(2-amino-2-oxoethyl)-1H-pyrazol-4-yl)phenyl)pyrazolo[1,5-a]pyridin-4-yl)-2,2-dimethylbut-3-ynamide]
6 | 0.1 to 100 | 0.1 to 100 | CC(C)(C#Cc1cccn2ncc(-c3ccc(-c4cnn(CC5CC5)c4)cc3)c12)C(N)=O [Compound P-0463, 4-(3-(4-(1-(cyclopropylmethyl)-1H-pyrazol-4-yl)phenyl)pyrazolo[1,5-a]pyridin-4-yl)-2,2-dimethylbut-3-ynamide]
7 | 0.1 to 100 | 0.1 to 100 | CC(C)(C#Cc1cccn2ncc(-c3ccc(-c4cnn(CCS(C)(=O)=O)c4)cc3)c12)C(N)=O [Compound P-0464, 2,2-dimethyl-4-(3-(4-(1-(2-(methylsulfonyl)ethyl)-1H-pyrazol-4-yl)phenyl)pyrazolo[1,5-a]pyridin-4-yl)but-3-ynamide]
8 | 0.1 to 100 | 0.1 to 100 | CC(C)(C#Cc1cccn2ncc(-c3ccc(-c4cnn(CCN5CCCC5)c4)cc3)c12)C(N)=O [Compound P-0465, 2,2-dimethyl-4-(3-(4-(1-(2-(pyrrolidin-1-yl)ethyl)-1H-pyrazol-4-yl)phenyl)pyrazolo[1,5-a]pyridin-4-yl)but-3-ynamide]
9 | 0.1 to 100 | 0.1 to 100 | CC(C)(C#Cc1cccn2ncc(-c3ccc(-c4cnn(CCF)c4)cc3)c12)C(N)=O [Compound P-0466, 4-(3-(4-(1-(2-fluoroethyl)-1H-pyrazol-4-yl)phenyl)pyrazolo[1,5-a]pyridin-4-yl)-2,2-dimethylbut-3-ynamide]
10 | 0.1 to 100 | 0.1 to 100 | CC(C)(C#Cc1cccn2ncc(-c3ccc(-c4cnn(CC(F)F)c4)cc3)c12)C(N)=O [Compound P-0467, 4-(3-(4-(1-(2,2-difluoroethyl)-1H-pyrazol-4-yl)phenyl)pyrazolo[1,5-a]pyridin-4-yl)-2,2-dimethylbut-3-ynamide]
11 | 0.1 to 100 | 0.1 to 100 | CC(C)(C#Cc1cccn2ncc(-c3ccc(-c4cnn(CC(F)(F)F)c4)cc3)c12)C(N)=O [Compound P-0468, 2,2-dimethyl-4-(3-(4-(1-(2,2,2-trifluoroethyl)-1H-pyrazol-4-yl)phenyl)pyrazolo[1,5-a]pyridin-4-yl)but-3-ynamide]
12 | 0.1 to 100 | 0.1 to 100 | COCCn1cc(-c2ccc(-c3cnn4cccc(C#CC(C)(C)C(N)=O)c34)cc2)cn1 [Compound P-0469, 4-(3-(4-(1-(2-methoxyethyl)-1H-pyrazol-4-yl)phenyl)pyrazolo[1,5-a]pyridin-4-yl)-2,2-dimethylbut-3-ynamide]
13 | 0.1 to 100 | 0.1 to 100 | CC(C)(C#Cc1cccn2ncc(-c3ccc(-c4cnn(CC5COC5)c4)cc3)c12)C(N)=O [Compound P-0470, 2,2-dimethyl-4-(3-(4-(1-(oxetan-3-ylmethyl)-1H-pyrazol-4-yl)phenyl)pyrazolo[1,5-a]pyridin-4-yl)but-3-ynamid]
